Experiment [1] has as its target T1, Interleukin-23 receptor (Homo sapiens, UniProt Q5VWK5).
T1 sequence (Q5VWK5 whole entry): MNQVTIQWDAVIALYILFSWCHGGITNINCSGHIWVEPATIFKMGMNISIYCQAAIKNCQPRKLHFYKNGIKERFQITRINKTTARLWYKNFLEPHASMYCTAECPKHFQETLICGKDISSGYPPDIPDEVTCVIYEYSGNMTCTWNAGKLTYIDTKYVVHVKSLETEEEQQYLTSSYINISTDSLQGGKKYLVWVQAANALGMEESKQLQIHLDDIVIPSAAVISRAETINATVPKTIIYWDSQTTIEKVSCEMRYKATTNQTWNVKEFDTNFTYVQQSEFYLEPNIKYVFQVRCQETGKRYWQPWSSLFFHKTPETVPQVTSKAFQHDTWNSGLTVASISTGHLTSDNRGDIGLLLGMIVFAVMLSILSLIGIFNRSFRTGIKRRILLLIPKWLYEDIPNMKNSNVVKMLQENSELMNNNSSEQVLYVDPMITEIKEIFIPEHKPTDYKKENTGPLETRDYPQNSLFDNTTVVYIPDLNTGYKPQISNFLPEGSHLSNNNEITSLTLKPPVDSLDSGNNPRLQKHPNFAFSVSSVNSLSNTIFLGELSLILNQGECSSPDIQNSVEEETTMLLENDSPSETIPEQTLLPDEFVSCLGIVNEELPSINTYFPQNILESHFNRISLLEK
Nature of the experiment: Inhibition of interleukin-23 binding to human interleukin-23 receptor incubated for 2 hrs by competitive binding ELISA.

A short description of experiment [2]: Inhibition of interleukin-23 binding to cynomolgus monkey interleukin-23 receptor incubated for 2 hrs by competitive binding ELISA. The arrangement: species or system Macaca fascicularis. (An ELISA detects its analyte on a solid surface through an enzyme-linked reagent.)
The nature of experiment [3]: Inhibition of interleukin-23 binding to rat interleukin-23 receptor incubated for 2 hrs by competitive binding ELISA.
Experiment [4] has as its target T1, Interleukin-23 receptor. Nature of the experiment: Inhibition of interleukin-23 receptor in human DB cells assessed as reduction in IL-23-stimulated STAT3 phosphorylation incubated for 30 mins by HTRF assay. The experiment is classed as cell-based. A general note: In TR-FRET formats the signal depends on donor and acceptor labels being close together.
Experiment [5] deals with T2, Interleukin-23 receptor (Mus musculus, UniProt Q8K4B4).
T2 sequence (Q8K4B4 whole entry): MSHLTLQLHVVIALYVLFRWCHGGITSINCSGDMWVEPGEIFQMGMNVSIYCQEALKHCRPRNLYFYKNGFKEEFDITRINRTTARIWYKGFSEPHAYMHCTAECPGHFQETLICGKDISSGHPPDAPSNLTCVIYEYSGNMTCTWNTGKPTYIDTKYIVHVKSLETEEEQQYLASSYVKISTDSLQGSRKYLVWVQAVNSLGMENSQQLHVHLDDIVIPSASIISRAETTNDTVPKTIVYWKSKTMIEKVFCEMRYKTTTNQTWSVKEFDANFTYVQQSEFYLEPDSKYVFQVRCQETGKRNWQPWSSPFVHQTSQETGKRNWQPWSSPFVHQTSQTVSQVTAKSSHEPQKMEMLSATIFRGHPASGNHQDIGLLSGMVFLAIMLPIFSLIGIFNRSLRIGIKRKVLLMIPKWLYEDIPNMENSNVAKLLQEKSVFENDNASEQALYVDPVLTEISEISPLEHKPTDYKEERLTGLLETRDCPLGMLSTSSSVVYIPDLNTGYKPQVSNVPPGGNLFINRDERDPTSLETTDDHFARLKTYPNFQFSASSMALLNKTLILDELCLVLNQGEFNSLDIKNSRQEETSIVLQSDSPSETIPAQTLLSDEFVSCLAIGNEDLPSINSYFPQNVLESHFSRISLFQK
Nature of the experiment: Inhibition of interleukin-23 binding to mouse interleukin-23 receptor incubated for 2 hrs by competitive binding ELISA.

The subject of the next experiment is Rattus norvegicus. In words: Anti-colitis activity in Sprague-Dawley rat model of DSS-induced colitis assessed as reduction in disease activity index at 100 mg/kg, po qd for 9 days. The format is functional, organism-based.

IC50 and Activity data for two molecules are collected here from ChEMBL document CHEMBL4417631, “Oral peptide inhibitors of interleukin-23 receptor and their use to treat inflammatory bowel diseases” (2017).

Calls of active or inactive are those of the source. The calls are words filed in the database; no cut-off is given here.

Usually IC50 stands for the concentration needed to halve the response being measured.

Take `CC(=O)N[C@@H](CS)C(=O)N[C@@H](CCC(N)=O)C(=O)N[C@H](C(=O)N[C@@H](Cc1c[nH]c2ccccc12)C(=O)N[C@@H](CCC(N)=O)C(=O)N[C@@H](CS)C(=O)N[C@@H](Cc1ccc(O)cc1)C(=O)N[C@@H](Cc1c[nH]c2ccccc12)C(=O)N[C@@H](CCCNC(N)=O)C(=O)N[C@@H](CN)C(=O)N[C@@H](Cc1ccccc1)C(=O)NCC(=O)NCCOCC(=O)N[C@H](CCCCN)C(N)=O)[C@@H](C)O`: the IC50 at Interleukin-23 receptor [1] was 0.025 to 10 µM; in experiment [2] it was 1 to 10 µM; in experiment [3], 1 to 10 µM; at Interleukin-23 receptor [4], 1 to 10 µM; at Interleukin-23 receptor [5], over 25 µM.
As for `O=C(O)c1cc(/N=N/c2ccc(S(=O)(=O)Nc3ccccn3)cc2)ccc1O`, in the experiment with Rattus norvegicus, the outcome was Active.
